This note sets out measurements from patent US11478440B2, “Combination of Elafibranor or derivatives thereof with an anti-NASH, anti-fibrotic or anti-cholestatic agent” (GENFIT, priority 2017, dated 2022).

The test has as its system mice with NASH (CDFF-fed mice). The test is described as follows: Mouse fibrosing-NASH model (CDFF diet, 8 weeks). The test is classed as in vivo, C57Bl/6J mice. Particulars: elafibranor 3 mg/kg/day. The procedure:
The preventive effects of the combinations of elafibranor with selonsertib, GKT-831 or GS-0976 were assessed in mice fed a choline-deficient, […] diet (CDAA) supplemented with 2% cholesterol, 30% milk fat diet and high fructose corn syrup 55 (55% fructose/45% glucose for a final concentration of 42 g/L) in drinking water (Mells et al J Nutr Biochem 2015) (CDFF diet). 5-6 weeks old male C57Bl/6J mice were fed a control (CSAA) diet (n=4), CDFF (n=12), or CDFF supplemented with elafibranor (1 or 3 mg/kg/day), selonsertib (30 mg/kg/day), GKT-831 ([…]) alone or in combination (n=8 per group) for 8 weeks.
The body weight, the food and water intake were monitored twice per week. On the last day of treatment, plasma samples were obtained from retro-orbital blood sampling and mice were sacrificed after a 6 h-fasting period. The liver was rapidly excised for biochemical and histological analyses. All animal procedures were performed according to standard protocols and in accordance with the standard recommendations for the proper care and use of laboratory animals.
The liver slices were fixed in a formalin 4% solution. Then, the liver pieces were washed 30 minutes in PBS, and dehydrated in ethanol solutions (successive baths at 70, 80, 95 and 100% ethanol). The liver pieces were incubated in three different baths of Xylene (Honeywell cat #534056), followed by two baths in liquid paraffin (59° C.). Liver pieces were then put into racks that were gently filled with HISTOWAX to completely cover the tissue.
Liver sections were deparaffinized, rehydrated and incubated for 3 minutes in Mayer's Hematoxylin (Microm, cat #F/C0303). Then, the liver sections were rinsed in water and incubated 1 minute in a Eosin Y 0.5% alcoholic (VWR, cat #1.02439.0500) and Erythrosin 0.5% solution (VWR, cat #1.15936.0010), and rinsed in with ethanol. Sections were then incubated for 2 minutes in Safranin, and were eventually dehydrated and mounted using the CV Mount medium (Leica, cat #046430011).
Liver sections were deparaffinized, rehydrated and incubated for 15 minutes in a solution of Fast Green FCF 0.1% (Sigma-Aldrich, cat #F7258) before rinsing in a bath of 0.5% acetic acid (Panreac, cat #131008.1611). Then, the liver sections were rinsed in water and incubated 30 minutes in a solution of 0.1% sirius red (Direct Red 80, Fluka cat #43665) in saturated aqueous picric acid (Sigma-Aldrich cat #P6744). Sections were then dehydrated, and mounted using the CV Mount medium (Leica, cat #14046430011).
A technician blinded to the source of each liver specimen performed histological examinations. Virtual slides were generated using the Pannoramic 250 scanner from 3D Histech. For each animal, a score summarizing the main histological lesions of NASH was attributed according to the NASH Clinical Research Network (Kleiner 2005, Brunt 1999). Briefly, steatosis, lobular inflammation and hepatocyte ballooning were scored. The NAFLD Activity Score (NAS) was established for each individual as the unweighted sum of the steatosis (0-3), lobular inflammation (0-3) and the ballooning (0-2) injury grading.
Using Quant Center software (3D Histech, including Pattern Quant and Histo Quant modules), collagen-stained areas were quantified. Briefly, Pattern Quant was used to detect the tissue and measure its surface. Then, Histo Quant was used to detect the stained collagen content and measure its surface, based on a color threshold method. The fibrosis area was then expressed as the percentage of the collagen surface to the whole tissue per animal.
The hepatic collagen content was determined using the appropriate QuickZyme kit (Total collagen assay, cat #QZB-totcol2). The assay is based on the detection of hydroxyproline, which is a non-proteinogenic amino acid mainly found in the triple helix of collagen. […]

On to “1-[4-methylthiophenyl]-3-[3,5-dimethyl-4-carboxydimethylmethyloxyphenyl]prop-2-en-1-one [Elafibranor]”, for which the “NASH histology (steatosis, hepatic lobular inflammation, NAFLD activity score)” value is “improves NASH histology”. Moreover, the “hepatic expression of genes related to inflammation, tissue remodeling and fibrogenesis” value (alone or with selonsertib 30 mg/kg/day) is reported as “decreases”. In addition, the “hepatic fibrosis (histology, hepatic collagen content, PIIINP and TIMP-1)” value (selonsertib 30 mg/kg/day, alone or combined) is “marked reduction of hepatic fibrosis”.
